Legend:
[1] = tested on: MMP-3, MMP-9 and MMP-2; test: MMP profiling assay, overall comparison of the three MMPs (Table 5 data); type: biochemical, human; conditions: for MMP inhibition activity in words: substituent size on the 4-phenyl ring; for selectivity of activity among the MMP's, in words: MMP-2 and MMP-9 vs MMP-3
Text: MMP Microfluorometric Profiling Assay
IC50 Determination in Microfluorometric Assay
((Control values-Treated Values)/Control Values)×100

[2] = tested on: human colon tumor; conditions: given intraperitoneally; orthotopic model in nude mice; cited from earlier work
[3] = tested on: human ovarian carcinoma xenografts; conditions: mouse, in vivo; cited from earlier work

O=C(CC(CCN1C(=O)c2ccccc2C1=O)C(=O)O)c1ccccc1 (centres unmarked) [Compound D, 4-phenyl-4-oxo-2-(2-phthalimidoethyl)butyric acid]
MMP inhibition activity in words [1]: activities are low

CCCCCCCCCCCCCCOc1ccc(C(=O)CC(CCN2C(=O)c3ccccc3C2=O)C(=O)O)cc1 (centres unmarked) [Compound F, 4-(4-tetradecyloxyphenyl)-4-oxo-2-(2-phthalimidoethyl)butyric acid]
MMP inhibition activity in words [1]: activity is also low

CCCCCCCOc1ccc(C(=O)CC(CCN2C(=O)c3ccccc3C2=O)C(=O)O)cc1 (centres unmarked) [Example 10, 4-(4-heptyloxyphenyl)4-oxo-2-(2-phthalimidoethyl) butyric acid]
selectivity of activity among the MMP's, in words [1]: broad high activity

COc1ccc(C(=O)CC(CCN2C(=O)c3ccccc3C2=O)C(=O)O)cc1 (centres unmarked) [Compound G, 4-(4-methoxyphenyl)-4-oxo-2-(2-phthalimidoethyl)butyric acid]
MMP inhibition activity in words [1]: activities are low

O=C(CC(CCN1C(=O)c2ccccc2C1=O)C(=O)O)c1ccc(Br)cc1 (centres unmarked) [Compound B, 4-(4-bromophenyl)-4-oxo-2-(2-phthalimidoethyl) butyric acid]
MMP inhibition activity in words [1]: activities are low

CNC(=O)[C@H](Cc1ccccc1)NC(=O)[C@H](CC(C)C)[C@H](CSc1cccs1)C(=O)NO [batimastat]
human colon tumor growth and spread [2]: inhibits human colon tumor growth and spread | survival of mice bearing human ovarian carcinoma xenografts [3]: prolongs the survival of mice

CCCCCCOc1ccc(C(=O)CC(CCN2C(=O)c3ccccc3C2=O)C(=O)O)cc1 (centres unmarked) [Example 11, 4-(4-hexyloxyphenyl)-4-oxo-2-(2-phthalimidoethyl) butyric acid]
selectivity of activity among the MMP's, in words [1]: broad high activity
